Measurements: patent EP0728482A2, “Use of hcp specific compounds to enhance erythropoiesis” (SMITHKLINE BEECHAM CORPORATION, priority 1995, dated 1996)
“Also recorded” adds a separate entry of the source.

Assays:
[1] = target: T1, human src SH2 domain (Homo sapiens, UniProt P12931); test: ELISA-based SH2 domain / pY peptide binding assay, src SH2 domain; details: for Ki: Ki calculated from IC50 with the expanded equation; for IC50: inhibition of binding of 0.1 uM biotinylated pY peptide to SH2 domain fusion protein
T1 construct: made in house; host or cells: E. coli AR120
Procedure: (§1) The inhibitory activity of compounds at the different human SH2 domains was determined in vitro using SH2 domains expressed as fusion proteins in E. coli. The SH2 domains used herein were the human forms of the src SH2 domain, Grb2 SH2 domain, lck SH2 domain, fyn SH2 domain, SH-PTP2 SH2 domain, p85 SH2 domain and hcp SH2 domain.
The fusion proteins containing the src, lck and hcp SH2 domains were expressed as the general sequence: DET1-DET2-spacer-ek-SH2, where DET1, DET2, spacer, ek and SH2 are as described below. DET1 ("defined epitope tag 1") (SEQ ID NO: 1) is an 11 amino acid sequence found in the Human Immunodeficiency Virus Type 1 (HIV-1) envelope protein gp120 (or gp160). Monoclonal antibodies to various epitopes of HIV-1 gp120 (or gp 160) are known in the art, see, for example U.S. Patent 5,166,050. One preferred example is monoclonal antibody 178.1 (see, e.g., Thiriart et al., J. Immunol., 143:1832-1836 (1989)), which was prepared by immunization of mice with a yeast-expressed HIV-1 gp160 molecule from strain BH10 (Ratner et al., Nature, 313:277-284 (1985)). This tag was used for detection of expression (by Western blot), for purification of the protein (by affinity chromatography), and for configuring assays in which the fusion protein was captured or immobilized using the 178.1 antibody. DET2 is a hexa-histidine sequence tag (SEQ ID NO: 2) which binds to nickel-containing resins and was used for purification purposes. Spacer (SEQ ID NO: 3) was utilized to design a BamH1 restriction site at the indicated position of the construct. The term -ek-refers to a recognition sequence (SEQ ID NO: 4) for the enterokinase protease which provides for the optional removal of the tags from the SH2 domain, thus producing an SH2 domain that contains no extraneous amino acids. SH2 domains which contain no extraneous amino acids are preferable to tagged protein for crystallography studies. SH2 refers to the SH2 domains of different proteins.
Procedure 2: Cloning, expression and purification of human src SH2 domain containing tags and an enterokinase proteolytic cleavage site (DET1-DET2-spacer-ek-src SH2).
A DNA sequence encoding protein ek-src SH2 was PCR amplified from a cDNA clone containing the human src gene (c-src SH2 DNA sequence identical to that described in Takeya,T. and Hanafusa, H, 1983 Cell 32:881-890) using the following primers: [formula]
The PCR product was digested with BamHI and XbaI, followed by isolation of the digested fragment on an agarose gel. The fragment was ligated into BamHI-XbaI-digested expression vector containing the tagged chicken src gene DET1-DET2-spacer-SH2 described in Procedure 1 above. In that vector, the BamHI site is located between the coding regions for DET2 and SH2, and the XbaI site is located after the 3' end of the SH2 coding region. The ligation reaction was used to transform E. coli MM294cI^+. The construct DET1-DET2-spacer-ek-src SH2 was confirmed by DNA sequencing (SEQ ID NO: 5) and induced in E. coli strain AR120 as described in Procedure 1 above. A Coomassie-Blue-stained, Western-blot-positive induced protein band with an apparent molecular weight of 16,000 was observed after nalidixic acid induction.
Cells were lysed at neutral pH by sonication in the presance of lysozyme. After centrifugation, the soluble extract was chromatographed on a Ni^++NTA column. After washing the column with equilibration buffer (Tris buffer pH 8 containing 0.5 M Nacl) and the same buffer containing 15 mM imidazole, the protein was eluted in highly purified form with 25 mM imidazole in equilibration buffer.
The binding assays for the SH2 domains and pY peptides were performed in an ELISA-based 96 well plate assay. […]

[2] = test system: B6D2F1 female mice; test: murine reticulocyte assay (Hayakawa assay); assay type: in vivo; details: oral gavage, once a day for 7 days
Procedure: The efficacy of hcp SH2 domain antagonist to enhance erythropoiesis is related to their ability to increase reticulocyte production in the murine reticulocyte assay (Hayakawa T, et al. Biologicals 20; 253 (1992) and Hayakawa T, et al. Biologicals 20; 243 (1992), (collectively hereinafter 'Hayakawa')).
L-3,5-Dibromo-3'-(6-oxo-3(1H)-pyridazinylmethyl)-thyronine (Compound 2) was tested for its in vivo potency to increase reticulocyte production in the Hayakawa assay.
To perform the experiment a total of 12 B6D2F1 female mice were used. The animals were administered Compound 2 (the compound was dissolved in water, pH 11, and administered by oral gavage) once a day for 7 days. At the end of the treatment period blood was collected from the animals and reticulocyte count was determined by known methods. (Hayakawa)

[3] = test system: human hcp SH2 domain; test: ELISA-based SH2 domain / pY peptide binding assay, hcp SH2 domain; details: hcp SH2 domain versus src, lck, fyn, SH-PTP2, p85, Grb2 SH2 domains
Procedure: as §1
The fusion proteins containing the src, lck and hcp SH2 domains were expressed as the general sequence: DET1-DET2-spacer-ek-SH2, where DET1, DET2, spacer, ek and SH2 are as described below. DET1 ("defined epitope tag 1") (SEQ ID NO: 1) is an 11 amino acid sequence found in the Human Immunodeficiency Virus Type 1 (HIV-1) envelope protein gp120 (or gp160). Monoclonal antibodies to various epitopes of HIV-1 gp120 (or gp 160) are known in the art, see, for example U.S. Patent 5,166,050. One preferred example is monoclonal antibody 178.1 (see, e.g., Thiriart et al., J. Immunol., 143:1832-1836 (1989)), which was prepared by immunization of mice with a yeast-expressed HIV-1 gp160 molecule from strain BH10 (Ratner et al., Nature, 313:277-284 (1985)). This tag was used for detection of expression (by Western blot), for purification of the protein (by affinity chromatography), and for configuring assays in which the fusion protein was captured or immobilized using the 178.1 antibody. […]

Compound | Ki [1] [µM] | IC50 [1] [µM] | Reticulocytes ([2]; 200 mg/kg/day) | Reticulocytes ([2]; 400 mg/kg/day) | Reticulocytes ([2]; 800 mg/kg/day) | binding affinities/inhibitory concentrations at the hcp SH2 domain than at other SH2 domains [3]
4-acetamido-benzamido-trans-4-methyl-cyclohexyl-N-1-(amino-R-2-(methoxy methyl)-pyrrolidine) carboxamide [Compound 8] | 12 | 16 |  |  |  | 
N[C@@H](Cc1cc(Br)c(Oc2ccc(O)c(Cc3ccc(=O)[nH]n3)c2)c(Br)c1)C(=O)O [Compound 2, L-3,5-Dibromo-3'-(6-oxo-3(1H)-pyridazinylmethyl)-thyronine] |  |  | 321.0 ± 46.3 10^9/L | 310.8 ± 24.8 10^9/L | 375.2 ± 51.6 10^9/L | 
Cc1ccc(C(=O)c2ccc(C(=O)c3ccc(CC=O)cc3)cc2)cc1 [Compound 4, 4-[4-(4-Methylbenzoyl)benzoyl]phenylacetaldehyde] | 40 | 40 |  |  |  | 
CCCNC(=O)[C@H]1CC[C@H](CNC(=O)/C=C/c2ccc(C=O)cc2)CC1 [Compound 9, 4-formyl-E-cinnamido-trans-4-methyl-cyclohexyl-N-(propyl) carboxamide] | 55 | 131 |  |  |  | 

Second part, led by results:

Ki [1] [µM] | IC50 [1] [µM] | Compound | Reticulocytes ([2]; 200 mg/kg/day) | Reticulocytes ([2]; 400 mg/kg/day) | Reticulocytes ([2]; 800 mg/kg/day) | binding affinities/inhibitory concentrations at the hcp SH2 domain than at other SH2 domains [3]
7 | 6 | Cc1nnc(SCC2=C(C(=O)O)N3C(=O)[C@@H](NC(=O)C(N)c4ccc(C(=O)O)cc4)[C@H]3SC2)s1 (stereo partly drawn) [Compound 1, 7-[D,L-α-Amino-α-(4-carboxyphenyl)acetamido]-3-[2-(5-methyl-1,3,4-thiadiazolyl)thiomethyl]Δ^3-cephem-4-carboxylic Acid] |  |  |  | 
6 | 16.1 | Cc1nc2sc3c(c2c2[nH][nH]c(=O)c12)CCC1(C3)OCCO1 [Compound 3, 8,8-Ethylenedioxy-2,3,7,8,9,10-hexahydro-4-methyl-1H-benzo[b]thieno[2,3-b]pyrazolo[3,4-d]pyridin-3-one] |  |  |  | 
28 | 63 | Cc1nc2sc3c(c2c2c1c(=O)[nH]n2C)CCC1(C3)OCCO1 [Compound 5, 1,4-Dimethyl-8,8-ethylenedioxy-2,3,7,8,9,10-hexahydro-1H-benzo[b]thieno[2,3-b]pyrazolo[3,4-d]pyridin-3-one] |  |  |  | greater than fifty-fold higher; also recorded: greater than one hundred-fold higher
